Active and inactive are the calls of the source. The calls are words filed in the database; no cut-off is given here. Some results are limits rather than exact numbers.

This is an account of results in ChEMBL document CHEMBL6127029, “Glutathione-dependent degradation of SMARCA2/4 for targeted lung cancer therapy with improved selectivity” (Eur J Med Chem, 2024).

For series [1], the target named is T1, von Hippel-Lindau disease tumor suppressor/SWI/SNF-related matrix-associated actin-dependent regulator of chromatin subfamily A member 2 (Homo sapiens) (UniProt P51531+P40337). Kind of series: PROTAC activity at VHL/SMARCA2 in human A549 cells assessed as induction of SMARCA2 degradation at 1 uM incubated for 24 hrs by Western blotting analysis. Type of series: cell-based.
T1 sequence (P40337 whole entry, looked up): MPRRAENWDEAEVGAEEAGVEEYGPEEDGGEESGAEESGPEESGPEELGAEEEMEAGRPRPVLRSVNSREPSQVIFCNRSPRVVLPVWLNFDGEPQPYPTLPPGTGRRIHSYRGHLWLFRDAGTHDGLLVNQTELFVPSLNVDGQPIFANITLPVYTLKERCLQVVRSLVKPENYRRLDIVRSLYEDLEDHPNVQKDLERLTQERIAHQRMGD
T1 sequence (P51531 whole entry, looked up): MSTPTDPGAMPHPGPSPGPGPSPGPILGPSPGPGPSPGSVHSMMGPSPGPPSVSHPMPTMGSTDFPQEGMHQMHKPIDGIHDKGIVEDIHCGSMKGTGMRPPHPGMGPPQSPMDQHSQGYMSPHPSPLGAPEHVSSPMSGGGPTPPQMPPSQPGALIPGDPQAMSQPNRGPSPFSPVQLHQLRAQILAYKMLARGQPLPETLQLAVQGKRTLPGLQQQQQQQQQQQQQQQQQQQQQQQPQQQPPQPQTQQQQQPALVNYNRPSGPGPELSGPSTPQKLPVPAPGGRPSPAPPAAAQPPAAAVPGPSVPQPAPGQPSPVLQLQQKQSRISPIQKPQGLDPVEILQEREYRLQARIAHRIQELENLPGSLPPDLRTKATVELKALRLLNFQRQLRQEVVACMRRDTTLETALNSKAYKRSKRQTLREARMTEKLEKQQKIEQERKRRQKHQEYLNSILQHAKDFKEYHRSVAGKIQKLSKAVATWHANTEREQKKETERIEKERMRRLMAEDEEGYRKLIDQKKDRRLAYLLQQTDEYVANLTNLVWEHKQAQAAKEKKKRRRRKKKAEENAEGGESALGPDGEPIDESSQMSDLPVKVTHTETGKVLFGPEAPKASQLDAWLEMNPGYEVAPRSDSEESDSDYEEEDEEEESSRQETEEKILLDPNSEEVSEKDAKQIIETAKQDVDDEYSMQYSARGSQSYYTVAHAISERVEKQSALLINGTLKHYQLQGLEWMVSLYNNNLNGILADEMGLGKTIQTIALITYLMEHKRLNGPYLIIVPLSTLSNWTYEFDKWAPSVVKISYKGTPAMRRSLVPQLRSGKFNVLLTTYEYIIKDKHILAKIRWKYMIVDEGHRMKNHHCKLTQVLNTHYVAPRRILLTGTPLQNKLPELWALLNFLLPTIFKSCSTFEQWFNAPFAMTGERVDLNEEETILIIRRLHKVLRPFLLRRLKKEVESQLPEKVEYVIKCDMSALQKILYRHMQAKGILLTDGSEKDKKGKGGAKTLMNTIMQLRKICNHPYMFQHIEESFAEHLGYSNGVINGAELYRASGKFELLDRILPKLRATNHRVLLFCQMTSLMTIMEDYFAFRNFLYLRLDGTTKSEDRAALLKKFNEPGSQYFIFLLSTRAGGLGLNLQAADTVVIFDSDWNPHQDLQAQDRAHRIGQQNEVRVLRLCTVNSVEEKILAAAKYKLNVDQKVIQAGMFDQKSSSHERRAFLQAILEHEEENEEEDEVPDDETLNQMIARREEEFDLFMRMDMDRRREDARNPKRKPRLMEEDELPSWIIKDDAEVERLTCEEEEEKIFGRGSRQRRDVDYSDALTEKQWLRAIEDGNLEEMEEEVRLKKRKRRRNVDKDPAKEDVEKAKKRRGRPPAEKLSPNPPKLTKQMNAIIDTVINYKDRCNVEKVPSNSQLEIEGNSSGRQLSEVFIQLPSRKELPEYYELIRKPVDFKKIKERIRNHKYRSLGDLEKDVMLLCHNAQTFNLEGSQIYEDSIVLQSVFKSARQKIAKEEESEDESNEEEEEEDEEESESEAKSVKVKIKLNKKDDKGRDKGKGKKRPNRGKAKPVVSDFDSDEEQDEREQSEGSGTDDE

The target of series [2] is T1, von Hippel-Lindau disease tumor suppressor/SWI/SNF-related matrix-associated actin-dependent regulator of chromatin subfamily A member 2 (Homo sapiens). In words: PROTAC activity at VHL/SMARCA2 in human HEK-293T cells assessed as induction of SMARCA2 degradation at 1 uM by Western blotting analysis. Type of series: cell-based. To be noted: TDE = time-dependent effect. (In general: In western blotting, separated proteins are transferred to a membrane and probed.)

The target in series [3] is T2, von Hippel-Lindau disease tumor suppressor/SWI/SNF-related matrix-associated actin-dependent regulator of chromatin subfamily A member 4 (Homo sapiens) (UniProt P51532+P40337). Kind of series: PROTAC activity at VHL/SMARCA4 in human HEK-293T cells assessed as induction of SMARCA4 degradation at 1 uM by Western blotting analysis. Type of series: cell-based. As to conditions: TDE = time-dependent effect.
T2 sequence (P40337 whole entry, looked up): as the sequence (P40337 whole entry, looked up) above
T2 sequence (P51532 whole entry, looked up): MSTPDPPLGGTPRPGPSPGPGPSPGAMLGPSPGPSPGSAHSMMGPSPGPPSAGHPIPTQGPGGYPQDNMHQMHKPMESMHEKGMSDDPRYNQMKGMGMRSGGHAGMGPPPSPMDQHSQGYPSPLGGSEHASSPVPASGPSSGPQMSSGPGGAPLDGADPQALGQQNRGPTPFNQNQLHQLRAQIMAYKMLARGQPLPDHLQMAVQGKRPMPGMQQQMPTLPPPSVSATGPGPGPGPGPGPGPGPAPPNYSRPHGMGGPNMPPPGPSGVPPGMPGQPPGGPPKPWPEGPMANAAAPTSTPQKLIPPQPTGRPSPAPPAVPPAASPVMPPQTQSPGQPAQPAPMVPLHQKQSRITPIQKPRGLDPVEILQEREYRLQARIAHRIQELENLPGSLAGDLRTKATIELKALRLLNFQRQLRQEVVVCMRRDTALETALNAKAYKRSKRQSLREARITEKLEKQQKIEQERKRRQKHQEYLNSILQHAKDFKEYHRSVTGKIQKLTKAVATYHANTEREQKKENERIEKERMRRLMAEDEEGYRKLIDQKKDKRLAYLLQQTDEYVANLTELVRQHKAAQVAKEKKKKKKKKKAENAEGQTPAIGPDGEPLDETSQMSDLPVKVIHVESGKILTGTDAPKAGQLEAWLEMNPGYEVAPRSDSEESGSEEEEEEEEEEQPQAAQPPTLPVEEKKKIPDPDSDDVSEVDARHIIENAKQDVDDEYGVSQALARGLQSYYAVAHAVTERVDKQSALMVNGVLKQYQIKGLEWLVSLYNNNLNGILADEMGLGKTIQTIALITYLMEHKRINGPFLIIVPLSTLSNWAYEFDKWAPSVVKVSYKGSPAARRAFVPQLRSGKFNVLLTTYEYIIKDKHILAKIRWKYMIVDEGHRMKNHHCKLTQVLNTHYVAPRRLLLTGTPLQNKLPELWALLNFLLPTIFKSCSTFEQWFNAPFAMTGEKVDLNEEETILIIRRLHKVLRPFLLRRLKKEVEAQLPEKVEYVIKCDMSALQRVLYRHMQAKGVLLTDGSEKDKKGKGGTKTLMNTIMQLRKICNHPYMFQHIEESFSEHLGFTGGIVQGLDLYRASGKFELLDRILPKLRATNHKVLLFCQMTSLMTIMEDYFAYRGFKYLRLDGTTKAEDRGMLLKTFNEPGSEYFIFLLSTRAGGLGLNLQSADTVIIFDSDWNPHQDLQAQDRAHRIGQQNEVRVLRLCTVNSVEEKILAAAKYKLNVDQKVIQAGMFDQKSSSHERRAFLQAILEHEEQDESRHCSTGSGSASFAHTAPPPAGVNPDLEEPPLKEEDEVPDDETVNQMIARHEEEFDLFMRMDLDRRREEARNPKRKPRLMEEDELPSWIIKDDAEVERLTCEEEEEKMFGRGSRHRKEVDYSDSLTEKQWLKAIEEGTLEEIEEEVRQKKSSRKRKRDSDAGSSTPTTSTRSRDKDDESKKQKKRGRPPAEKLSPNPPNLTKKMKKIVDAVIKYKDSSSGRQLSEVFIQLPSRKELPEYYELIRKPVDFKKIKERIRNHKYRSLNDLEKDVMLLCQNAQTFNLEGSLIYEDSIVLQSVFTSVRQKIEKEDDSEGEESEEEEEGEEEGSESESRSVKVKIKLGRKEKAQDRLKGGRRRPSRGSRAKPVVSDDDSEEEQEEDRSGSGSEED

The target of series [4] is T1, von Hippel-Lindau disease tumor suppressor/SWI/SNF-related matrix-associated actin-dependent regulator of chromatin subfamily A member 2 (Homo sapiens). In words: PROTAC activity at VHL/SMARCA2 in human HuLEC-5a cells assessed as induction of SMARCA2 degradation at 1 uM by Western blotting analysis. The series is classed as cell-based. To be noted: TDE = time-dependent effect.

Series [5] concerns the target T2, von Hippel-Lindau disease tumor suppressor/SWI/SNF-related matrix-associated actin-dependent regulator of chromatin subfamily A member 4 (Homo sapiens). Kind of series: PROTAC activity at VHL/SMARCA4 in human HuLEC-5a cells assessed as induction of SMARCA4 degradation at 1 uM by Western blotting analysis. The series is classed as cell-based. As to conditions: TDE = time-dependent effect.

Series [6] addresses T1, von Hippel-Lindau disease tumor suppressor/SWI/SNF-related matrix-associated actin-dependent regulator of chromatin subfamily A member 2 (Homo sapiens). Kind of series: PROTAC activity at VHL/SMARCA2 in human HEK-293T cells assessed as induction of SMARCA2 degradation at 1 uM incubated for 24 hrs by Western blotting analysis relative to control. Type of series: cell-based.

Series [7] addresses T2, von Hippel-Lindau disease tumor suppressor/SWI/SNF-related matrix-associated actin-dependent regulator of chromatin subfamily A member 4 (Homo sapiens). Kind of series: PROTAC activity at VHL/SMARCA4 in human HEK-293T cells assessed as induction of SMARCA4 degradation at 1 uM incubated for 24 hrs by Western blotting analysis relative to control. Type of series: cell-based.

Series [8] deals with T1, von Hippel-Lindau disease tumor suppressor/SWI/SNF-related matrix-associated actin-dependent regulator of chromatin subfamily A member 2 (Homo sapiens). Kind of series: PROTAC activity at VHL/SMARCA2 in human A549 cells assessed as induction of SMARCA2 degradation at 1 uM by Western blotting analysis. Type of series: cell-based. To be noted: TDE = time-dependent effect.

Series [9] has the same target. Kind of series: PROTAC activity at VHL/SMARCA2 in human NCI-H1299 cells assessed as induction of SMARCA2 degradation at 1 uM by Western blotting analysis. The series is classed as cell-based. To be noted: TDE = time-dependent effect.
Series [10] has the same target. In words: PROTAC activity at VHL/SMARCA2 in human A549 cells assessed as induction of SMARCA2 degradation at 1 uM pretreated with MG132 followed by compound addition and measured after 8 hrs by Western blotting analysis. The series is classed as cell-based.
Series [11] has the same target. Kind of series: PROTAC activity at VHL/SMARCA2 in human A549 cells assessed as induction of SMARCA2 degradation at 1 uM pretreated with MLN4924 followed by compound addition and measured after 8 hrs by Western blotting analysis. Type of series: cell-based.
For series [12] the target is unchanged. Kind of series: PROTAC activity at VHL/SMARCA2 in human 786-0 cells harboring mutated VHL assessed as induction of SMARCA2 degradation at 0.1 to 5 uM incubated for 8 hrs by Western blotting analysis. The series is classed as cell-based. As to conditions: dose 0.1-5 µM.
Series [13] has as its target T2, von Hippel-Lindau disease tumor suppressor/SWI/SNF-related matrix-associated actin-dependent regulator of chromatin subfamily A member 4 (Homo sapiens). Kind of series: PROTAC activity at VHL/SMARCA4 in human 786-0 cells harboring mutated VHL assessed as induction of SMARCA4 degradation at 0.1 to 5 uM incubated for 8 hrs by Western blotting analysis. The series is classed as cell-based. To be noted: dose 0.1-5 µM.

Series [14] has as its target T1, von Hippel-Lindau disease tumor suppressor/SWI/SNF-related matrix-associated actin-dependent regulator of chromatin subfamily A member 2 (Homo sapiens). In words: PROTAC activity at VHL/SMARCA2 in human NCI-H1299 cells harboring shRNA mediated VHL knockdown assessed as induction of SMARCA2 degradation at 0.1 to 2 uM incubated for 8 hrs by Western blotting analysis. As to conditions: dose 0.1-2 µM. The series is classed as cell-based.

For series [15] the target is unchanged. Kind of series: PROTAC activity at VHL/SMARCA2 in human A549 cells harboring shRNA mediated VHL knockdown assessed as induction of SMARCA2 degradation at 0.1 to 2 uM incubated for 8 hrs by Western blotting analysis. Type of series: cell-based. To be noted: dose 0.1-2 µM.
Series [16] can be described thus: Cytotoxicity against human HuLEC-5a cells assessed as inhibition of cell growth incubated for 3 days by MTT assay. Type of series: toxicity, cell-based.
For the next series, the system named is NCI-H1299. Kind of series: Cytotoxicity against human NCI-H1299 cells assessed as inhibition of cell growth incubated for 3 days by MTT assay. Type of series: functional, cell-based. As to conditions: NCI-H1299, 72 h. (Tetrazolium dyes change colour on reduction, which living cells bring about.)
Series [17] has as its system A549. Kind of series: Cytotoxicity against human A549 cells assessed as inhibition of cell growth incubated for 3 days by MTT assay. Type of series: functional, cell-based. To be noted: A549, 72 h.
The test system of series [18] is A549. In words: Inhibition of cell migration in human A549 cells at 10 uM incubated for 36 hrs by scratch wound healing based fluorescent microscopic analysis. Type of series: functional.
Another series deals with HuLEC-5a. In words: Inhibition of cell migration in human HuLEC-5a cells at 10 uM incubated for 36 hrs by scratch wound healing based fluorescent microscopic analysis. The series is classed as functional.

Broadly, the IC50 is the concentration needed to halve the response being measured. As to `Cc1ncsc1-c1ccc(CNC(=O)[C@@H]2C[C@@H](O)CN2C(=O)[C@@H](NC(=O)CN2CCN(c3cc(-c4ccccc4O)nnc3N)CC2)C(C)(C)C)cc1`, in series [1], the outcome was Active. Also, the Activity result in series [2] is “Tde”; in series [3] it was “Tde”; in series [4], “Tde”; in series [5], “Tde”; in series [6], below 10%; in series [7] it was below 10%. Moreover, the Activity result in [8] and in [9] was “Tde” throughout. For the same compound, the result in series [10], in [11], in series [12], in [13], in series [14] and in [15] was inactive. In addition, the concentration for half-maximal inhibition (IC50) at 3 days in [16] was 24500 nM. Also, the IC50 was 1400 nM in the series with NCI-H1299 and 1300 nM in the series on A549 [17]. The inhibition result with A549 [18] is “Active”. Moreover, the inhibition result in the series on HuLEC-5a was “inactive”.
